Test results published in US20240409475A1, “INTERMEDIATE-RELEASE FERTILIZERS AND METHODS FOR MAKING SAME” (OSTARA NUTRIENT RECOVERY TECHNOLOGES INC., priority 2021, published 2024).

Tested on: canola
Test: canola germination as a function of phosphate application rate
Assay type: in vivo
Conditions: media containing increasing concentrations of phosphate application
Description: FIG. 8 is a graph showing germination rate for canola as a function of phosphate applicant rate for various sources of phosphorus listed in Table 2.

SMILES	germination of canola seedlings
N.O=P(O)(O)O [MAP, Mono-Ammonium Phosphate]	inhibited at even the lowest application rate
N.N.O=P(O)(O)O [DAP, Di-Ammonium Phosphate]	inhibited at even the lowest application rate
